Consider 5 compounds from US8552016B2, “Anti-cancer cyclopenta(g)quinazoline compounds” (BTG International Limited, priority 2001, dated 2013).

Molecules are shown by their SMILES. Like-named read-outs stand apart in the source and are kept apart here.

Usually IC50 stands for the midpoint of a concentration-inhibition curve.

One experiment relates to A431-FBP cells. Description: Inhibition of growth of A431-FBP cells (A431 transfected with the α-FR). It counts as cell-based, human. To be noted: for A431-FBP: fold increased IC50 in presence of folic acid: 1 μM FA; for activity in A431-FBP cells (in words): α-FR mediated uptake. An excerpt:
(§1) CB300945, the (RS)-C2-CH2OH analogue of the known cyclopenta[g]-quinazoline, CB300638 was synthesised as in Example 1. In addition, the C2-NH2 was made as a comparative example. […] The human A431-FBP cell line was transfected with the α-FR and sensitivity compared with the A431 cell line. Human nasopharengeal KB cells constitutively overexpress this receptor (see Bagnoli et al. Oncogene, 19, 4754-4763, 2000).

The subject of the next experiment is A431 cells. Description: Inhibition of growth of A431 (neo-transfected, not expressing α-FR) cells. It counts as cell-based, human. To be noted: for A431: fold increased IC50 in presence of folic acid: 1 μM FA.
Text: as §1

The next experiment concerns the target T1, α-FR of L1210-FBP cells (Mus musculus, UniProt P35846).
T1 construct: endogenous in cells; host or cells: mouse L1210-FBP leukaemia cells
Description: Binding to the α-FR relative to folic acid, L1210-FBP cells. To be noted: >1 = binding greater than folic acid.

In another experiment the test system is KB cells. Briefly: Inhibition of growth of KB cells (constitutively overexpress α-FR). It counts as cell-based, human. To be noted: for KB: fold increased IC50 in presence of folic acid: 1 μM FA.
Text: as §1

[1] abbreviates: Homo sapiens, A-431, 1 nM LV, read-out: Inhibition of cell growth, IC50, A431-FBP.
[2] abbreviates: Homo sapiens, A-431, read-out: Inhibition of cell growth, IC50, A431-FBP + 1 μM FA, 1 nM LV, + 1 μM folic acid.
Setting [3] is: Homo sapiens, A-431, read-out: Inhibition of cell growth, IC50, A431-FBP + 1 μM FA, 20 nM LV, + 1 μM folic acid.
The mark [4] stands for this setting: Homo sapiens, A-431, 1 nM LV, read-out: Inhibition of cell growth, IC50, A431.
The mark [5] stands for this setting: Homo sapiens, A-431, read-out: Inhibition of cell growth, IC50, A431 + 1 μM FA, 1 nM LV, + 1 μM folic acid.
[6] abbreviates: Homo sapiens, A-431, read-out: Inhibition of cell growth, IC50, A431 + 1 μM FA, 20 nM LV, + 1 μM folic acid.
Setting [7] is: Homo sapiens, KB, read-out: Inhibition of cell growth, IC50, KB + 1 μM FA, 1 nM LV, + 1 μM folic acid.
Where [8] appears, read: Homo sapiens, KB, read-out: Inhibition of cell growth, IC50, KB + 1 μM FA, 20 nM LV, + 1 μM folic acid.
The mark [9] stands for this setting: Homo sapiens, KB, 1 nM LV, read-out: Inhibition of cell growth, IC50, KB.
Setting [10] is: 20 nM LV, read-out: Inhibition of cell growth, IC50, A431.

T1 sequence (P35846 25-232): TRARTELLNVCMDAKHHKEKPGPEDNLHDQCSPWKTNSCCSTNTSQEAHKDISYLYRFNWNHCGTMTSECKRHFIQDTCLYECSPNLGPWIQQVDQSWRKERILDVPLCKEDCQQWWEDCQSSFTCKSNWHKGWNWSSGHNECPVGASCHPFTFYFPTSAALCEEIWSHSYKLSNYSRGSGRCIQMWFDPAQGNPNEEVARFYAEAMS

Turning to `C#CCN(c1ccc(C(=O)N[C@@H](CCC(=O)N[C@H](CCC(=O)O)C(=O)O)C(=O)O)cc1)C1CCc2cc3nc(CO)[nH]c(=O)c3cc21` (mixture of isomers) [CB300945 (RS), N—{N-{4-[N-((6RS)-2-Hydroxymethyl-4-oxo-3,4,7,8-tetrahydro-6H-cyclopenta[g]quinazolin-6-yl)-N-(prop-2-ynyl)amino]benzoyl}-L-γ-glutamyl}-D-glutamic acid], the entries for the “A431-FBP: fold increased sensitivity compared with A431” value (shortened to “A431-FBP: fold increased sensitivity”) in the experiment on A431-FBP cells (1 nM LV) and with A431-FBP cells (20 nM LV) were “(3800) fold” and “(4700) fold”, respectively. Further, the “A431-FBP: fold increased IC50 in presence of folic acid” value (“A431-FBP: fold increased IC50” below) in the experiment on A431-FBP cells (1 nM LV) and with A431-FBP cells (20 nM LV) was “(3100) fold” in each case. The IC50 in the experiment with A431-FBP cells (setting [1]) amounted to 0.0019 ± 0.0006 µM; with A431-FBP cells (setting [2]), 5.7 ± 1.3 µM; in the experiment on A431-FBP cells (setting [3]), 6.5 ± 0.86 µM; in the experiment on A431 cells (setting [4]), 7.2 ± 3.6 µM; with A431 cells (setting [5]) it was 7.3 ± 3.3 µM; in the experiment with A431 cells (setting [6]), 9.3 ± 3.5 µM. Further, the IC50 is 7.6 ± 1.3 µM with KB cells (setting [7]) and 7.3 ± 2 µM in the experiment on KB cells (setting [8]). Besides, in the experiment with A431-FBP cells, the “activity in A431-FBP cells (in words)” value is given as “highly potent”. Also, the “A431: fold increased IC50 in presence of folic acid” value (shortened to “A431: fold increased IC50”) in the experiment with A431 cells (20 nM LV) is given as “(1) fold”. Moreover, the “relative binding affinity (inverse relative affinity) for the α-FR” value (“relative binding affinity” for short) on α-FR of L1210-FBP cells was 0.71. The “KB: fold increased IC50 in presence of folic acid” value (“KB: fold increased IC50” below) is recorded as “(2200) fold” with KB cells (1 nM LV) and “(2100) fold” in the experiment with KB cells (20 nM LV).

As for `C#CCN(c1ccc(C(=O)N[C@@H](CCC(=O)N(C)[C@@H](CCC(=O)O)C(=O)O)C(=O)O)cc1)C1CCc2cc3nc(CO)[nH]c(=O)c3cc21` (mixture of isomers) [CB300960 (R, S), N—{N-{4-[N-((6RS)-2-hydroxymethyl-4-oxo-3,4,7,8-tetrahydro-6H-cyclopenta[g]quinazolin-6-yl)-N-(prop-2-ynyl)amino]benzoyl}-L-γ-glutamyl}-N-methyl-L-glutamic acid], the “A431-FBP: fold increased IC50” value in the experiment on A431-FBP cells (20 nM LV) is “(180) fold”. In addition, in the experiment with A431-FBP cells (setting [3]), the half-maximal inhibitory concentration (IC50) was 5.1 µM. Further, the “A431: fold increased IC50” value in the experiment on A431 cells (20 nM LV) is on record as “(1) fold”.

Consider `C#CCN(c1ccc(C(=O)N[C@@H](CCC(=O)N[C@H](CCC(=O)O)C(=O)O)C(=O)O)cc1)C1CCc2cc3nc(C)[nH]c(=O)c3cc21` (mixture of isomers) [CB300638 (RS)], for which the results for the “A431-FBP: fold increased sensitivity” value with A431-FBP cells (1 nM LV) and with A431-FBP cells (20 nM LV) were “(170) fold” and “(220) fold”, respectively. Besides, the entries for the “A431-FBP: fold increased IC50” value in the experiment on A431-FBP cells (1 nM LV) and in the experiment with A431-FBP cells (20 nM LV) were “(85) fold” and “(130) fold”, respectively. The IC50 in the experiment on A431-FBP cells (setting [1]) is 0.0072 ± 0.001 µM; with A431-FBP cells (setting [2]), 0.61 ± 0.012 µM; with A431-FBP cells (setting [3]), 0.87 ± 0.29 µM; in the experiment with A431 cells (setting [4]), 1.2 ± 0.21 µM; in the experiment on A431 cells (setting [5]), 0.98 ± 0.23 µM; with KB cells (setting [9]) it was 0.0079 ± 0.001 µM. Moreover, the IC50 came out at 0.61 ± 0.012 µM with KB cells (setting [7]) and 0.76 ± 0.17 µM with KB cells (setting [8]). In addition, in the experiment with A431-FBP cells, the “activity in A431-FBP cells (in words)” value was “highly sensitive”. The “A431: fold increased IC50” value with A431 cells (1 nM LV) and in the experiment with A431 cells (20 nM LV) was “(1) fold” throughout. Also, the “relative binding affinity” value on α-FR of L1210-FBP cells was determined as 0.57. For the same compound, the “KB: fold increased IC50” value was “(76) fold” in the experiment with KB cells (1 nM LV) and “(140) fold” in the experiment with KB cells (20 nM LV).

As for `C#CCN(c1ccc(C(=O)N[C@@H](CCC(=O)N[C@H](CCC(=O)O)C(=O)O)C(=O)O)cc1)C1CCc2cc3nc(N)[nH]c(=O)c3cc21` (mixture of isomers) [CB300944 (RS)], the “A431-FBP: fold increased sensitivity” value in the experiment on A431-FBP cells (1 nM LV) and with A431-FBP cells (20 nM LV) was “(3) fold” throughout. For the same compound, the “A431-FBP: fold increased IC50” value in the experiment on A431-FBP cells (1 nM LV) and with A431-FBP cells (20 nM LV) was “(1) fold” throughout. Further, the IC50 with A431-FBP cells (setting [1]) stood at 9.1 ± 0.83 µM; in the experiment with A431-FBP cells (Homo sapiens, A-431, 20 nM LV, read-out: Inhibition of cell growth, IC50, A431-FBP) it was 8.3 ± 0.64 µM; in the experiment with A431-FBP cells (setting [2]), 12 ± 2.1 µM; with A431-FBP cells (setting [3]) it was 7.1 ± 1 µM; in the experiment on A431 cells (setting [10]), 27 µM; in the experiment with A431 cells (setting [4]), 24 ± 3.6 µM. Further, the half-maximal inhibitory concentration (IC50) with A431 cells (Homo sapiens, A-431, 20 nM LV, read-out: Inhibition of cell growth, IC50, A431) turned out to be 23 µM; in the experiment on A431 cells (setting [5]), 24 ± 2.9 µM; in the experiment on A431 cells (setting [6]), 22 µM; in the experiment on KB cells (setting [9]), 19 µM; with KB cells (Homo sapiens, KB, 20 nM LV, read-out: Inhibition of cell growth, IC50, KB), 19 ± 0.58 µM; with KB cells (setting [7]) it was 19 ± 1.5 µM. In the experiment with KB cells (setting [8]), the concentration for half-maximal inhibition (IC50) is 19 ± 1.2 µM. Besides, the “activity in A431-FBP cells (in words)” value in the experiment with A431-FBP cells was “very little activity”. Also, the “A431: fold increased IC50” value in the experiment with A431 cells (1 nM LV) and in the experiment on A431 cells (20 nM LV) was “(1) fold” throughout. For the same compound, the “relative binding affinity” value at α-FR of L1210-FBP cells came to 0.57. Moreover, the “KB: fold increased IC50” value with KB cells (1 nM LV) and in the experiment on KB cells (20 nM LV) was “(1) fold” throughout.

Consider `C#CCN(Cc1cc2c(O)nc(C)nc2cc1C)c1ccc(C(=O)N[C@@H](CCc2nnn[nH]2)C(=O)O)c(F)c1` [ZD9331], for which the results for the “A431-FBP: fold increased sensitivity” value in the experiment with A431-FBP cells (1 nM LV) and in the experiment with A431-FBP cells (20 nM LV) were “(7) fold” and “(4) fold”, respectively. The “A431-FBP: fold increased IC50” value with A431-FBP cells (1 nM LV) is “(3) fold”; in the experiment with A431-FBP cells (20 nM LV) it was “(2) fold”. The IC50 with A431-FBP cells (1 nM LV, read-out: Inhibition of cell growth, IC50, A431-FBP) is 0.0088 ± 0.0052 µM; in the experiment on A431-FBP cells (20 nM LV, read-out: Inhibition of cell growth, IC50, A431-FBP), 0.018 ± 0.0097 µM; with A431-FBP cells (read-out: Inhibition of cell growth, IC50, A431-FBP + 1 μM FA, 1 nM LV, + 1 μM folic acid), 0.027 ± 0.0076 µM; in the experiment on A431-FBP cells (read-out: Inhibition of cell growth, IC50, A431-FBP + 1 μM FA, 20 nM LV, + 1 μM folic acid), 0.034 ± 0.0087 µM; with A431 cells (1 nM LV, read-out: Inhibition of cell growth, IC50, A431), 0.061 ± 0.014 µM; in the experiment on A431 cells (setting [10]) it was 0.082 ± 0.042 µM. Besides, the IC50 in the experiment with A431 cells (read-out: Inhibition of cell growth, IC50, A431 + 1 μM FA, 1 nM LV, + 1 μM folic acid) is 0.056 ± 0.025 µM; with A431 cells (read-out: Inhibition of cell growth, IC50, A431 + 1 μM FA, 20 nM LV, + 1 μM folic acid) it was 0.067 ± 0.029 µM; in the experiment with KB cells (1 nM LV, read-out: Inhibition of cell growth, IC50, KB) it was 0.0021 ± 0.0013 µM; in the experiment with KB cells (20 nM LV, read-out: Inhibition of cell growth, IC50, KB) it was 0.0036 ± 0.0021 µM; in the experiment on KB cells (read-out: Inhibition of cell growth, IC50, KB + 1 μM FA, 1 nM LV, + 1 μM folic acid), 0.00641 ± 0.0035 µM; with KB cells (read-out: Inhibition of cell growth, IC50, KB + 1 μM FA, 20 nM LV, + 1 μM folic acid), 0.012 ± 0.005 µM. Also, the “A431: fold increased IC50” value in the experiment on A431 cells (1 nM LV) and in the experiment on A431 cells (20 nM LV) was “(1) fold” throughout. For the same compound, the “KB: fold increased IC50” value in the experiment with KB cells (1 nM LV) and in the experiment on KB cells (20 nM LV) was “(3) fold” throughout.
